“And” between values parts separate entries of the source, which are not always exact repeats. Equal values may be shown once. “Also recorded” adds a separate entry of the source. Read-outs that look alike come from different tables or passages of the source.
Columns and labels:
E. coli PNP = E. coli PNP (Escherichia coli, UniProt P0ABP8); assay type: biochemical
human PNP = biological target: T1, human PNP (Homo sapiens, UniProt P00491); experiment: Cleavage of purine analog nucleosides by human PNP (HPLC); assay type: biochemical; conditions: for Percent of substrate cleaved by Human PNP, 1 mM: substrate 1 mM
T1 sequence (P00491 1-289): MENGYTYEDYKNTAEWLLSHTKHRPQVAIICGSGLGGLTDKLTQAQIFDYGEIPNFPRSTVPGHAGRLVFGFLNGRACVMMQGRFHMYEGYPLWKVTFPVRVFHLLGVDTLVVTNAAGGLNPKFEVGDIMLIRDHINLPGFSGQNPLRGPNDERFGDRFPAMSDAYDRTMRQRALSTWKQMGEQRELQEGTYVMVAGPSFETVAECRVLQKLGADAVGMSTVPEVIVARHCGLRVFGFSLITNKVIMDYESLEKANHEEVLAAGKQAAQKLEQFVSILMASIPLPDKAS

[1] = literature; cited from earlier work
D54 glioma tumors = experiment: D54 tumors of mixed wild-type and transduced cells (80 to 20); conditions: in vivo
PNP transduced tumors = assay type: in vivo
[2] = tested on: tumor cells transduced with the E. coli PNP; experiment: Killing of PNP-transduced tumor cells in vitro by other prodrugs; assay type: cell-based
From the text: In addition to MeP-dR, two other prodrugs suitable for E. coli PNP activation in tumor cells can be applied to the methodology of the present invention. These prodrugs are F-araA and 2-F-2′deoxyadenosine. […] As desired, this dose had no effect on control untransduced, tumor cells.

D54-PNP tumors = experiment: E. coli PNP-transduced D54 glioma tumors in nude mice; assay type: in vivo; conditions: previous studies
Method: Female athymic nude mice (nu/nu) were implanted sc with 2×10^7 cells of either D54 parental tumor cells (D54-wt) or D54 tumor cells that had been transduced with the E. coli PNP (D54-PNP). After the tumors had grown to approximately 150 mg, they were treated ip with either vehicle or 67 mg/kg of MeP-dR (IP) once a day for 3 days (days 6, 7 and 8 after implantation). The tumor sizes were measured twice a week after treatment.
A confirmation experiment was set up exactly as described above, except that animals were treated with two doses of MeP-dR (45 and 67 mg/kg) (FIGS. 10 and 11). The results of this experiment were similar (Table V). There were 8 of 10 complete regressions in mice bearing the D54-PNP tumors that were treated with 67 mg/kg of MeP-dR. In 4 mice the tumors subsequently returned and grew. There were still 4 of 10 tumor-free survivors 60 days after the treatment had stopped. […] There were 2 of 10 complete regressions and 3 partial responses. […] The delay in the time required to double twice due to treatment with MeP-dR was 5 to 6 days in the non-transduced tumors and greater than 24 days in transduced tumors. In this experiment, the growth rate of the D54-PNP tumors was considerably slower than it was in the first experiment. There was no change in the growth rate of the D54-wt tumors. The reason for the slow growth rate of the D54-PNP tumors in this experiment is not known. […] (In other words, if a tumor was too small to measure, it was not included in the average size). This means that the overall tumor regressions in the D54 PNP group are actually much more pronounced than they appear in FIGS. 8-11.

[3] = substrate 100 μM, 0.1 unit/ml enzyme, 25° C., 1 hour, stopped by boiling
[4] = 25° C., 1 hour, stopped by boiling
[5] = 100 μM in the presence of 1 mM deoxycytidine

Sequence of E. coli PNP (P0ABP8 2-239): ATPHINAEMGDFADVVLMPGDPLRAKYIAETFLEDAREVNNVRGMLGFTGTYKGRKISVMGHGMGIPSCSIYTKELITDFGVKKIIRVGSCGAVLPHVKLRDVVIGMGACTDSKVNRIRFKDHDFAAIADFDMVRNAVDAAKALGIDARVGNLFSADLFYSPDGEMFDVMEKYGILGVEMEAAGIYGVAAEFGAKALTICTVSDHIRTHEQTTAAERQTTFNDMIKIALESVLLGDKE

**Q.** What does the source list for Nc1nc(F)nc2c1ncn2[C@@H]1O[C@H](CO)[C@@H](O)[C@H]1F [2-F-2′-F-2′-deoxyadenosine]?
**A.** Percent of substrate cleaved by E. coli PNP, 100 μM (E. coli PNP): 0(86) Percent; Percent of substrate cleaved by E. coli PNP, 1 mM (E. coli PNP): 0(21) Percent; Substrate quality for bacterial (E. coli) PNP (E. coli PNP): poor substrates

**Q.** For NC[C@H]1O[C@@H](n2cnc3c(N)ncnc32)[C@H](O)[C@@H]1O [5′-amino-5′-deoxyadenosine], which “Substrate quality for bacterial (E. coli) PNP” value (“Substrate quality for bacterial” for short) (E. coli PNP) is on record?
**A.** moderate substrates; also recorded: poorly cleaved

**Q.** What about the “Substrate quality for mammalian (human) PNP” value (human PNP; in words) of the same compound?
**A.** not cleaved

**Q.** And the “Substrate quality for mammalian (human) PNP” value (human PNP; in words, listed as 50-amino-50-deoxyadenosine)?
**A.** poor substrates

**Q.** With O=c1[nH]cnc2ncn(C3O[C@H](CO)[C@@H](O)[C@H]3O)c12 (stereo partly shown) [7-ribosyl-hypoxanthine, 7-ribosylhypoxanthine] as the compound, how does the “Substrate quality for bacterial” value (E. coli PNP) read?
**A.** moderate to good substrates

**Q.** And the “Substrate quality for mammalian (human) PNP” value (human PNP; in words)?
**A.** moderate to good substrates

**Q.** With Nc1cc2ncn(C3O[C@H](CO)[C@@H](O)[C@H]3O)c2c(=O)[nH]1 (stereo partly shown) [7-ribosyl-3-deazaguanine] as the compound, how does the “Substrate quality for bacterial” value (E. coli PNP) read?
**A.** good substrates

**Q.** And the “Substrate quality for mammalian (human) PNP” value (human PNP; in words)?
**A.** poor substrates

**Q.** And the “Toxicity of prodrug relative to its purine analog” value [1]?
**A.** much less toxic than their respective purine analogs

**Q.** For Nc1ncnc2c1ncn2[C@@H]1O[C@H](CO)C[C@H]1O [3′-deoxy adenosine, 3′-deoxyadenosine], which “Substrate quality for bacterial” value (E. coli PNP) is on record?
**A.** poor substrates

**Q.** And the “Substrate quality for mammalian (human) PNP” value (human PNP; in words)?
**A.** poor substrates

**Q.** With Nc1ncnc2c1ncn2[C@H]1O[C@H](CO)[C@@H](O)[C@H]1O [α-adenosine] as the compound, how does the “Substrate quality for bacterial” value (E. coli PNP) read?
**A.** poorly cleaved

**Q.** What about the “Percent of substrate cleaved by Human PNP, 100 μM” value (“Percent … by Human PNP, 100 μM” for short) (human PNP; # line: assay terminated by filtering and not by boiling) of the same compound?
**A.** 0(87**) Percent

**Q.** And the “Substrate quality for mammalian (human) PNP” value (human PNP; in words)?
**A.** poor substrates; also recorded: not cleaved

**Q.** And the “Percent … by Human PNP, 100 μM” value (human PNP; [3])?
**A.** 0(88) Percent and 0(86) Percent

**Q.** And the “Percent of substrate cleaved by Human PNP, 1 mM” value (human PNP; [4])?
**A.** 0(50) Percent and 0(47) Percent

**Q.** Which “Substrate quality for mammalian (human) PNP” value (human PNP; in words) does the source give for OC[C@H]1OC(n2cnc3ncnc(S)c32)[C@H](O)[C@@H]1O (stereo partly shown) [7-ribosyl-6-mercaptopurine] here?
**A.** poor substrates

**Q.** Which “Percent … by Human PNP, 100 μM” value (human PNP; [3]) does the source give for Nc1ncnc2c1ncn2C1OC(CO)C(O)C1O (stereo not shown) [xylosyl adenine] here?
**A.** 0(81) Percent and 0(82) Percent

**Q.** Which results are given for NC(=O)[C@H]1O[C@@H](n2cnc3c(N)ncnc32)[C@H](O)[C@@H]1O [5′-carboxamide of adenosine]?
**A.** Substrate quality for bacterial (E. coli) PNP (E. coli PNP): poor substrates; Percent of substrate cleaved by Human PNP, 100 μM (human PNP): 0(81) Percent and 0(82) Percent; Substrate quality for mammalian (human) PNP (human PNP): poor substrates

**Q.** With “xylosyl methylpurine [xylosylmethylpurine]” as the compound, how does the “Percent of substrate cleaved by E. coli PNP, 100 μM” value (E. coli PNP) read?
**A.** 0(86) Percent

**Q.** And the “Percent of substrate cleaved by E. coli PNP, 1 mM” value (E. coli PNP)?
**A.** 0(21) Percent

**Q.** What about the “Substrate quality for bacterial” value (E. coli PNP) of the same compound?
**A.** poor substrates

**Q.** And the “Substrate quality for mammalian (human) PNP” value (human PNP; in words)?
**A.** poor substrates

**Q.** What about the “Percent … by Human PNP, 100 μM” value (human PNP; [3]) of the same compound?
**A.** 0(88) Percent and 0(86) Percent

**Q.** What about the “Percent of substrate cleaved by Human PNP, 1 mM” value (human PNP; [4]) of the same compound?
**A.** 0(50) Percent and 0(47) Percent

**Q.** Which results are given for Nc1ncnc2c1ncn2[C@H]1CC[C@@H](CO)O1 [2′,3′-dideoxy adenosine, 2′,3′-dideoxyadenosine]?
**A.** Substrate quality for bacterial (E. coli) PNP (E. coli PNP): poor substrates; Substrate quality for mammalian (human) PNP (human PNP; in words): poor substrates

**Q.** What does the source list for Nc1nc(F)nc2c1ncn2[C@H]1C[C@H](O)[C@@H](CO)O1 [F-dAdo, 2-fluoro-2′-deoxyadenosine]?
**A.** Activity against tumors of wild-type and transduced cells at 80 to 20 (D54 glioma tumors): less active; Tolerability in mice (PNP transduced tumors; doses similar to MeP-dR): without toxicity; Anti-tumor effect on PNP transduced tumors in mice (PNP transduced tumors; mouse, in vivo): strong anti-tumor effects; Substrate quality for bacterial (E. coli) PNP (E. coli PNP): good substrates; Killing of PNP-transduced tumor cells in vitro [2]: high level killing; Effect on control untransduced tumor cells [2, 5]: no effect; Killing when as few as 1% of tumor cells express the gene [2, 5]: kills cells transduced with the E. coli PNP; Substrate quality for mammalian (human) PNP (human PNP; in words): poor substrates; Activity against D54 glioma tumors expressing the E. coli PNP gene (D54-PNP tumors): good activity

**Q.** Which “Substrate quality for bacterial” value (E. coli PNP) does the source give for C[C@H]1O[C@@H](n2cnc3c(N)nc(F)nc32)[C@H](O)[C@@H]1O [2-F-5′-deoxyadenosine, 2-fluoro-5′-deoxyadenosine] here?
**A.** good substrates

**Q.** What about the “Substrate quality for mammalian (human) PNP” value (human PNP; in words) of the same compound?
**A.** poor substrates

**Q.** What does the source list for Nc1cc(Cl)c2ncn([C@@H]3O[C@H](CO)[C@@H](O)[C@H]3O)c2n1 [1-deaza-2-amino-6-Cl-purine-riboside, 2-amino-6-chloro-1-deazapurine riboside]?
**A.** Percent of substrate cleaved by E. coli PNP, 100 μM (E. coli PNP): 62(87)16(23) Percent and 41(86)15(21) Percent; Percent of substrate cleaved by E. coli PNP, 1 mM (E. coli PNP): 62(87)16(23) Percent and 41(86)15(21) Percent; Substrate quality for bacterial (E. coli) PNP (E. coli PNP): good substrates; Substrate quality for mammalian (human) PNP (human PNP; in words): poor substrates; Percent of substrate cleaved by Human PNP, 100 μM (human PNP; [3]): 0(88) Percent and 0(86) Percent; Percent of substrate cleaved by Human PNP, 1 mM (human PNP; [4]): 0(52) Percent and 0(47) Percent; Toxicity of prodrug relative to its purine analog [1]: much less toxic than their respective purine analogs

**Q.** With CC1(C)OC2C(C(N)=O)OC(n3cnc4c(N)ncnc43)C2O1 (stereo not shown) [isopropylidine of the 5′-carboxamide of adenosine] as the compound, how does the “Substrate quality for bacterial” value (E. coli PNP) read?
**A.** poor substrates

**Q.** And the “Percent … by Human PNP, 100 μM” value (human PNP)?
**A.** 0(81) Percent and 0(82) Percent

**Q.** And the “Substrate quality for mammalian (human) PNP” value (human PNP)?
**A.** poor substrates

From patent US6958318B2, “Recombinant bacterial cells for delivery of PNP to tumor cells” (The UAB Research Foundation, priority 1993, dated 2005)
